Assay results published in patent US20240226041A1, “METHODS AND COMPOSITIONS FOR TREATMENT OF NEUROPATHIC PAIN USING STAT3 INHIBITORS” (priority 2021, published 2024).
Entries after “also recorded” stand apart in the source; their conditions may differ.

Columns and labels:
mice = test: Example 6: mouse chronic constriction injury (CCI) model; assay type: in vivo
Method: CCI surgery is carried out in mice. Analgesia is limited to perioperative administration of buprenorphine SR (0.05 mg/kg SQ). […] Animals then are examined for behavioral pain sensitivity. All experiments are performed by observers blinded to the drug formulation administered. This is done from baseline (8 weeks)—prior to nerve injury—then weekly thereafter until 16 weeks of age. […] Anticoagulated blood is used to measure levels of pro- and anti-inflammatory cytokines. One portion of each SN and DRG is snap-frozen and another portion placed in formalin, then paraffin imbedded (FFPE). Cryotome sections of the snap-frozen tissue are used to generate protein lysates for measurement of pY-STAT3, IL-1B, and IL-6 by Luminex, and RNA for RNA-seq analysis. […] Microtome sections of FFPE blocks are H&E stained and undergo immunohistochemistry staining and scoring for pY-STAT3, CD68 (macrophages), PGP9.5 (sensory nerves) and GAP43 (regenerating nerves). Detection of oxidative stress in sciatic nerve and DRG via IHC for nitrotyrosine or 4-hydroxynonenal adducts and MnSOD is carried out. In a subset of mice, characterization of SN and DRG macrophage phenotype is analyzed using flow cytometry with conjugated antibodies against CD86, F4/80, CD163 and CD206.

male C57BL/6 mice = test: Mechanical sensitivity (von Frey) in mice given TTI-101 alone; assay type: in vivo, mouse; settings: 50 mg/kg i.p. every other day, 7 doses
Method: Data were analyzed by two-way ANOVA repeated measures. Time: P<0.001; Group: P<0.001; Interaction P<0.001. **P<0.01 Tukey multiple comparison test. Data are from a representative experiment out of two with similar results.
Peripheral neuropathy has been observed with several small-molecule STAT3 inhibitors in clinical-stage development (Bendell et al., 2014; Genini et al., 2017; Ogura et al., 2015). […] This model was selected because it was shown previously that it is mediated by mitochondrial damage in the peripheral nervous system (Krukowski et al., 2017; Maj, Ma, Krukowski, Kavelaars & Heijnen, 2017). […] (FIG. 12).
Pain measurements and chemotherapy-induced peripheral neuropathy (CIPN).

[1] = 28-day GLP studies; cited from earlier work
[2] = Glutathione reaction study (UV-HPLC stability with GSH); assay type: physicochemical; settings: 100 μM in 50 mM HEPES pH 7.5, 10 mM GSH, 50 minutes after exposure
Method: The AUC of each compound measured at the times indicated by UV-HPLC and expressed as percent of the starting AUC of the peaks. Data are representative of four independently performed experiments.
Each reaction mixture was sampled at time 0 and every 5 minutes for 50 minutes; all samples were analyzed by HPLC. The amount of unreacted inhibitor was determined by measuring the area under the curve (AUC) and plotting this value as a percentage of the starting AUC as a function of time (FIG. 3). […] In contrast, there was no loss of TTI-101 in the presence of GSH.
Glutathione reaction studies. STAT3 inhibitors (10 ul of 10 mM stock in DMSO) were spiked into reaction buffer [50 mM HEPES pH7.5 containing 10 mM reduced glutathione (GSH)] the samples were mixed thoroughly and placed in an autosampler set at 20° C. The reactions were monitored by high performance liquid chromatography (HPLC) using an Exion LC Sciex unit equipped with a UV detector. The stationary phase used was a C18 Synergi™ 4 μm Fusion-RP 80 Å LC column (50×2 mm); the mobile phase was water (A) and acetonitrile (B). The elution process consisted of an isocratic step with 20% mobile phase B, followed by 80% B, for 2 minutes. The flow rate was maintained at 0.5 mL/min during the run. Measurements were conducted at intervals of 5 minutes for a period of 55 minutes total. The presence of the STAT3 inhibitors were quantified by calculating the area under the curves (AUCs) of the compound peaks at 260-295 nm.

C57BL/6 mice = test: Example 3: mouse SNI model, pain behavior, barrier function, leukocyte infiltration, inflammatory mediators; assay type: in vivo
Method: SNI surgery is carried out in C57BL/6 mice as previously described. Analgesia is limited to perioperative administration of buprenorphine SR (0.05 mg/kg SQ). […] Animals then are examined for behavioral pain sensitivity. Plantar mechanical sensitivity is assessed using hind paw stimulation with von Frey filaments. Frequency of hindlimb withdrawal in response to application of filaments of increasing force is used as a readout of mechanical sensitivity. Plantar cold sensitivity is tested using the plantar cold assay, in which hindpaw withdrawal in response to a cooling source is used as a readout of cold sensitivity. Testing is carried out after habituation at baseline (prior to surgery), then once weekly for 8 weeks following surgery. Daily testing of von Frey and cold sensitivity is carried out during the TTI-101 treatment window. Additional behavioral testing occurs weekly to more extensively validate analgesic efficacy and functional recovery. The mechanical conflict-avoidance (MCA) test uses a chamber of blunt probes to measure aversion to hindpaw mechanical stimuli and serves as an additional assessment of mechanical sensitivity. Plantar cold sensitivity is measured using the thermal gradient ring assay, which uses a temperature gradient to measure temperature preference/aversion. Finally, paw placement and other gait parameters are assessed using digital gait analysis (Catwalk XT) and a burrowing activity assay (spontaneous clearing of bedding material from a tube). […] All experiments are performed by observers blinded to the genotype and drug formulation administered. This additional behavioral testing is done from baseline (8 weeks)—prior to nerve injury—then weekly thereafter until 16 weeks of age. Mice are euthanized humanely by cardiac puncture and necropsy performed to remove the contralateral and ipsilateral sciatic nerves (SN) and dorsal root ganglia (DRG). […] Anticoagulated blood at both time points is used to measure levels of pro- and anti-inflammatory cytokines, including IL-4, IL-6, IL-10, IL-13, TGF-β and IFN-γ by Luminex. One portion of each SN and DRG is snap-frozen and another portion placed in formalin, then paraffin imbedded (FFPE). Cryotome sections of snap-frozen tissues are used to generate protein lysates for measurement of pY-STAT3, IL-1B and IL-6 by Luminex and Western blotting. […] Snap-frozen tissues are processed to isolate RNA for RNA sequencing (RNA-seq) analysis. Microtome sections of FFPE blocks are H&E stained and undergo immunohistochemistry staining and scoring for pY-STAT3, CD68 (macrophages), PGP9.5 (sensory nerves) and GAP43 (regenerating nerves). Detection of oxidative stress in sciatic nerve and DRG via IHC for nitrotyrosine, 4-hydroxynonenal and MnSOD is carried out. Vascular endothelium permeability in nerve is determined by quantifying the extravasation of the fluorescent dye sodium fluorescein. Cross-sections of the nerve are quantified using the EVOS fluorescence microscope, and mean fluorescence intensity and the percent area positive are determined using NIH ImageJ software. In a subset of mice, characterization of SN and DRG macrophage phenotype are analyzed using flow cytometry with conjugated antibodies against CD86, F4/80, CD163 and CD206.

[3] = 100 mg/kg oral gavage daily for 5 days

COc1ccc(S(=O)(=O)Nc2cc(-c3c(O)ccc4ccccc34)c(O)c3ccccc23)cc1 [TTI-101]
antalgic gait patterns/burrowing aversion (mice; [3]): net reduction | macrophage infiltration of the sciatic nerve (mice; [3]): net reduction | mechanical and thermal hypersensitivity (mice; [3]): net reduction | plasma and tissue levels / pY-STAT3 in macrophages in SN and DRG (mice; [3]): achieves levels in the plasma and tissue adequate to reduce levels of pY-STAT3 | pain hyper-sensitivity at 8 weeks post-CCI (mice; 8 weeks post-CCI): sustained reversal | mechanical sensitivity / mechanical allodynia caused by compound alone (male C57BL/6 mice): had no effect on mechanical sensitivity; also recorded: does not cause mechanical allodynia | drug-related toxicity [1]: no drug-related toxicity up to the maximum dose administered | loss of inhibitor in the presence of GSH [2]: no loss | antalgic gait patterns/burrowing aversion (C57BL/6 mice; [3]): net reduction | macrophage infiltration of SN and DRG (C57BL/6 mice; [3]): net reduction | mechanical and cold hypersensitivity (C57BL/6 mice; [3]): net reduction | plasma and tissue levels / pY-STAT3 in macrophages in SN and DRG (C57BL/6 mice; [3]): achieves levels in the plasma and tissue adequate to reduce levels of pY-STAT3 | RNA-seq gene signatures (C57BL/6 mice; SN and DRG): shifts RNA-seq gene signatures toward a net promotion of M2-like macrophage polarization, improved tight junction/barrier formation, reduced ROS production, and circulating pro-inflammatory markers
